Like-named read-outs stand apart in the source and are kept apart here.
Tests used:
[1] = test system: mouse fibrosarcoma M5076; test: anti-tumor effect in mice inoculated subcutaneously with M5076 fibrosarcoma; type: in vivo, mouse (female BDF1); details: M5076 s.c. in mice
Protocol: The test animals used were female mice, 8 weeks old, of the BDF1 strain, weighing 20-25 g. The mice were purchased from Charles River Japan Inc., Kanagawa, Japan. The mice were divided into experimental groups, each group containing 6 mice, and all mice within each group were treated identically. Each mouse was inoculated subcutaneouly with 1×10^6viable cells (the number of cells was measured by a dye exclusion method under microscopy) of the mouse fibrosarcoma M5076.
The test compounds (80 mg) listed in the following Table, except radicicol, were dissolved in 0.2 ml of N,N-dimethylacetamide (DMA) and to the solution was added 0.2 ml of 40° C.-warmed HCO60 (polyoxyethylene hydrogenated caster oil 60). Immediately thereafter 3.6 ml of 40° C.-warmed physiological saline was added to form a colloidal solution or a suspension. The final concentration of DMA and HCO60 was 5% v/v, each. Radicicol was dissolved in […] of DMA and the solution was dispersed slowly into 3.75 ml of 10% Emulphor(trade mark)-physiological saline stirred well with a stirring rod. The final concentration of DMA was 6.25%. The solution was administered intravenously (in the case of a suspension it was administered intraperitoneally) on the first, fifth and ninth days following inoculation of the fibrosarcoma cells. The period for which the mice survived and the % inhibition of tumor growth were determined. A control group was treated identically, except that no active compound was administered.
The anti-tumor effect is shown in the following Table as the increase in life span [ILS (%)] and the growth inhibition [GI (%)], calculated from the following equations [R. I. Geran et al., Cancer Chemother. Rept., 3 (1972)]:
Dt=median survival time (days) of mice in the treated group; and
Dc=median survival time (days) of mice in the control group.
In this experiment, Dc was 40-47 days.
TDt=average value of tumor sizes on the fourteenth day in the treated group; and
TDc=average value of tumor sizes on the fourteenth day in the control group tumor size=(tumor length+tumor width )/2.

[2] = test system: various types of tumor; test: anti-tumor activity against various types of tumor in vivo
Source text: It is believed that the relative inactivity in vivo compared to the good activity in vitro may be a result of an instability of the compound to a component of the mammalian metabolism.

[3] = in words; cited from earlier work
[4] = test system: tumor cells of the mouse mastocytoma P-815; details: cited from earlier work
[5] = test system: fungi (anti-fungal); details: in words; cited from earlier work
[6] = Mus musculus, 336 h, 200 mg/kg iv on days 1, 5 and 9, tumor size on day 14, read-out: growth Inhibition (%)
[7] = Mus musculus, 200 mg/kg iv on days 1, 5 and 9, median survival vs control (Dc 40-47 days), read-out: ILS (%) (increase in life span)

CCCCCCCC/C=C\CCCCCCCC(=O)Oc1cc(OC(=O)CCCCCCC/C=C\CCCCCCCC)c2c(c1Cl)CC(=O)/C=C/C=C\[C@H]1O[C@@H]1C[C@@H](C)OC2=O [72(cis), 14,16-dioleoylradicicol]
inhibition in vivo at 200 mg/kg [1, 6]: 80% | ILS at 200 mg/kg [1, 7]: 4%

CCCCCCCC/C=C/CCCCCCCC(=O)Oc1cc(OC(=O)CCCCCCC/C=C/CCCCCCCC)c2c(c1Cl)CC(=O)/C=C/C=C\[C@H]1O[C@@H]1C[C@@H](C)OC2=O [72(trans), 14,16-dielaidoylradicicol]
inhibition in vivo at 200 mg/kg [1, 6]: 86% | ILS at 200 mg/kg [1, 7]: 9%

CCCCCCCCCCCC(=O)Oc1cc(OC(=O)CCCCCCCCCCC)c2c(c1Cl)CC(=O)/C=C/C=C\[C@H]1O[C@@H]1C[C@@H](C)OC2=O [Compound 17, 14,16-dilauroylradicicol]
inhibition in vivo at 200 mg/kg [1, 6]: 89% | ILS at 200 mg/kg [1, 7]: 24%

CCCCCCCCCCCCC(=O)Oc1cc(OC(=O)CCCCCCCCCCCC)c2c(c1Cl)CC(=O)/C=C/C=C\[C@H]1O[C@@H]1C[C@@H](C)OC2=O [Compound 19, 14,16-ditridecanoylradicicol]
inhibition in vivo at 200 mg/kg [1, 6]: 89% | ILS at 200 mg/kg [1, 7]: 9%

CCCCCCCCCCCCCC(=O)Oc1cc(OC(=O)CCCCCCCCCCCCC)c2c(c1Cl)CC(=O)/C=C/C=C\[C@H]1O[C@@H]1C[C@@H](C)OC2=O [Compound 21, 14,16-dimyristoylradicicol]
inhibition in vivo at 200 mg/kg [1, 6]: 91% | ILS at 200 mg/kg [1, 7]: 35%

CCCCCCCCCCCCCCC(=O)Oc1cc(OC(=O)CCCCCCCCCCCCCC)c2c(c1Cl)CC(=O)/C=C/C=C\[C@H]1O[C@@H]1C[C@@H](C)OC2=O [Compound 23, 14,16-dipentadecanoylradicicol]
inhibition in vivo at 200 mg/kg [1, 6]: 95% | ILS at 200 mg/kg [1, 7]: 35%

CCCCCCCCCCCCCCCC(=O)Oc1cc(OC(=O)CCCCCCCCCCCCCCC)c2c(c1Cl)CC(=O)/C=C/C=C\[C@H]1O[C@@H]1C[C@@H](C)OC2=O [Compound 25, 14,16-dipalmitoylradicicol]
inhibition in vivo at 200 mg/kg [1, 6]: 100% | ILS at 200 mg/kg [1, 7]: 43%

CCCCCCCCCCCCCCCCC(=O)Oc1cc(OC(=O)CCCCCCCCCCCCCCCC)c2c(c1Cl)CC(=O)/C=C/C=C\[C@H]1O[C@@H]1C[C@@H](C)OC2=O [Compound 28, 14,16-diheptadecanoylradicicol]
inhibition in vivo at 200 mg/kg [1, 6]: 95% | ILS at 200 mg/kg [1, 7]: 27%

CCCCCCCCCCCCCCCCCC(=O)Oc1cc(OC(=O)CCCCCCCCCCCCCCCCC)c2c(c1Cl)CC(=O)/C=C/C=C\[C@H]1O[C@@H]1C[C@@H](C)OC2=O [Compound 31, 14,16-distearoylradicicol]
inhibition in vivo at 200 mg/kg ([1]; Mus musculus, 336 h, 200 mg/kg ip on days 1, 5 and 9, tumor size on day 14, read-out: growth Inhibition (%)): 66% | ILS at 200 mg/kg ([1]; Mus musculus, 200 mg/kg ip on days 1, 5 and 9, median survival vs control (Dc 40-47 days), read-out: ILS (%) (increase in life span)): -4%

CCCCCC/C=C\CCCCCCCC(=O)Oc1cc(OC(=O)CCCCCCC/C=C\CCCCCC)c2c(c1Cl)CC(=O)/C=C/C=C\[C@H]1O[C@@H]1C[C@@H](C)OC2=O [Compound 70, 14,16-dipalmitoleoylradicicol]
inhibition in vivo at 200 mg/kg [1, 6]: 65% | ILS at 200 mg/kg [1, 7]: 31%

CC/C=C\C/C=C\C/C=C\CCCCCCCC(=O)Oc1cc(OC(=O)CCCCCCC/C=C\C/C=C\C/C=C\CC)c2c(c1Cl)CC(=O)/C=C/C=C\[C@H]1O[C@@H]1C[C@@H](C)OC2=O [Compound 76, 14,16-dilinolenoylradicicol]
ILS (%) (increase in life span) ([1]; 200 mg/kg iv on days 1, 5 and 9, median survival vs control (Dc 40-47 days)): 11% | growth Inhibition (%) ([1]; 200 mg/kg iv on days 1, 5 and 9, tumor size on day 14): 74%

C[C@@H]1C[C@H]2O[C@@H]2/C=C\C=C\C(=O)Cc2c(Cl)c(O)cc(O)c2C(=O)O1 [radicicol]
anti-tumor activity in vivo [2]: little anti-tumor activity | effect on the central nervous system [3]: without having any effect on the central nervous system | tranquilizing activity [3]: relatively strong tranquilizing activity | inhibitory effect in vitro on the growth of tumor cells [4]: strong inhibitory effect | inhibition in vivo at 150 mg/kg ([1]; Mus musculus, 336 h, 150 mg/kg iv on days 1, 5 and 9, tumor size on day 14, read-out: growth Inhibition (%)): 5% | ILS at 150 mg/kg ([1]; Mus musculus, 150 mg/kg iv on days 1, 5 and 9, median survival vs control (Dc 40-47 days), read-out: ILS (%) (increase in life span)): -29% | antibiotic activity (nature of) [5]: strictly anti-fungal

From patent US5650430A, “Radicicol derivatives, their preparation and their anti-tumor activity” (Sankyo Company, Limited, priority 1990, dated 1997)
